Converted amounts (≈) assume the structure as drawn.

A short description of series [1]: Toxicity in uninfected H9 cells. Format: cell-based. The settings on record: human, uninfected H9 lymphocytes, no virus. As to the method: Please refer to the document (J. Med. Chem. 2004, 47, 756-760). Lymphocytes H9 were cultivated in culture medium 1640, under the conditions of 5% CO2, 37° C. The test compound was initially dissolved in DMSO, and then diluted with culture medium to conventional screening concentrations: 100, 20, 4, 0.8 μg/mL. The cultivated H9 cells were divided into two portions, one of which was infected with HIV virus (IIIB) (m.i.o. 0.1-0.01 infectious Units/cell), and used for the determination of activity. Another portion of the cells, in which no virus, but merely culture medium was added, was used for the determination of toxicity. After having been cultivated under completely the same conditions (37° C., 5% CO2) for 4 h, the two portions of cells were washed with fresh culture medium for 3 times, and then respectively added to different concentrations of test samples as formulated or to blank culture medium (the latter is positive infection control or negative drug control), while using AZT as positive drug control. […] On the 4th day, the cell membranes of the cells infected with virus were firstly removed, and the cytosol was tested by using P24 antigen ELISA assay to determine the activity of the samples, which was expressed as EC50. […] The portion of cells in which no virus was added was tested by using cytometry to determine the toxicity of the samples, which was expressed as CC50. […]

For series [2], the system named is HIV virus (IIIB). Description: Anti-HIV activity test (H9 cell model), P24 antigen ELISA. To be noted: for SI(CC50/EC50): H9 cells, ratio of toxicity CC50 value to activity EC50 value; for EC50: Human immunodeficiency virus 1, 96 h, H9 cells infected with HIV (IIIB), 4 days, P24 antigen. Format: cell-based. The method, then:
Please refer to the document (J. Med. Chem. 2004, 47, 756-760). Lymphocytes H9 were cultivated in culture medium 1640, under the conditions of 5% CO2, 37° C. The test compound was initially dissolved in DMSO, and then diluted with culture medium to conventional screening concentrations: 100, 20, 4, 0.8 μg/mL. The cultivated H9 cells were divided into two portions, one of which was infected with HIV virus (IIIB) (m.i.o. 0.1-0.01 infectious Units/cell), and used for the determination of activity. Another portion of the cells, in which no virus, but merely culture medium was added, was used for the determination of toxicity. After having been cultivated under completely the same conditions (37° C., 5% CO2) for 4 h, the two portions of cells were washed with fresh culture medium for 3 times, and then respectively added to different concentrations of test samples as formulated or to blank culture medium (the latter is positive infection control or negative drug control), while using AZT as positive drug control. All of these cells were cultivated under the conditions of 5% CO2, 37° C. for 4 days. On the 4th day, the cell membranes of the cells infected with virus were firstly removed, and the cytosol was tested by using P24 antigen ELISA assay to determine the activity of the samples, which was expressed as EC50. EC50 meant an effective concentration at which 50% of virus replication was inhibited. The portion of cells in which no virus was added was tested by using cytometry to determine the toxicity of the samples, which was expressed as CC50. CC50 meant a concentration at which 50% of living cells were killed.
(In general: An ELISA detects its analyte on a solid surface through an enzyme-linked reagent.)

Series [3] in a line: Cytotoxicity test of the compound (MT-2 cells, XTT). Format: cell-based. To be noted: human, 4th day. As to the method: Please refer to the document (Jiang, S., et al. Antimicrob. Agents Chemother. 2004, 48, 4349-4359). In a 96-pore cell culture plate, 50 μl of different concentrations of compound solutions were respectively mixed with equal-volume of PBS, and incubated at 37° C. for 30 min, and then 100 μl MT-2 (or H9) cells (1×10^5/mL, RPIM 1640 culture medium containing 10% serum) was added, and mixed homogenously, followed by incubation at 37° C. overnight. On the second day, 150 μl of the supernatant was sucked out, and equal-volume of fresh culture medium was replenished, followed by further incubation at 37° C. for 3 days. On the 4th day, 50 μl of a XTT solution (1 mg/mL) containing PMS as freshly prepared was added. After 4 h, OD at 450 nm was tested. The 50% cytotoxicity concentration (CC50) of the compound was calculated using CalcuSyn software.

Series [4] concerns HIV-1IIIB virus strain. The series can be described thus: Anti-HIV activity test (MT-2 cell model), p24 antigen ELISA. To be noted: MT-2 cells; for EC50: Human immunodeficiency virus 1, MT2, HIV-1IIIB, 4th day, p24 antigen; for SI(CC50/EC50): ratio of toxicity CC50 value to activity EC50 value. The series is classed as cell-based. As to the method:
Please refer to the document (Jiang, S., et al. Antimicrob. Agents Chemother. 2004, 48, 4349-4359). In a 96-pore cell culture plate, 50 μl of different concentrations of compound solutions were respectively mixed with equal-volume of HIV-1IIIB virus strain (100 TCID50), and incubated at 37° C. for 30 min, and then 100 μl MT-2 cell (1×10^5/mL, RPIM 1640 culture medium containing 10% serum) was added, and mixed homogenously, followed by incubation at 37° C. overnight. On the second day, 150 μl of the supernatant was sucked out, and equal-volume of fresh culture medium was replenished, followed by further incubation at 37° C. for 3 days. On the 4th day, cytopathic effect (CPE) was recorded. Thereafter, 100 μl of culture supernatant was sucked out, virus particles were split using 5% Triton X-100, and p24 antigen therein was tested by using ELISA assay. Briefly, a ELISA plate was coated with HIVIG (2 μg/mL), and blocked with 1% fat-free milk, then a virus lysate was added therein, followed by incubation at 37° C. for 60 min. After fully washing the plate, anti-p24 monoclonal antibody-183-12H-5C, biotin-labeled goat antimouse antibody and […]-labeled horseradish peroxidase were added in sequence. Then, after developing with TMB, OD was tested at 450 nm. The 50% effective concentration (EC50) of the compound was calculated using CalcuSyn software.

For `Cc1cc(Br)cc(C)c1Oc1ccc([N+](=O)[O-])c(Nc2ccc(C#N)cc2)n1` [Compound I-1, 2-(4-cyanophenylamino)-6-(2,6-dimethyl-4-bromophenoxy)-3-nitropyridine], the CC50 at 4 days in series [1] was 19.4 µg/mL (≈ 44.1 µM); in series [3], 32.2 µg/mL (≈ 73.4 µM). Besides, the “SI(CC50/EC50)” value in series [2] is recorded as above 774; in series [4] it was 62. In addition, the figures for the EC50 in series [2] and in series [4] were below 0.025 µg/mL and 0.52 µg/mL (≈ 1.18 µM), respectively.
For `Cc1cc(C#N)cc(C)c1Oc1ccc([N+](=O)[O-])c(Nc2ccc(C#N)cc2)n1` [Compound I-2, 2-(4-cyanophenylamino)-6-(2,6-dimethyl-4-cyanophenoxy)-3-nitropyridine], the CC50 at 4 days is above 25 µg/mL in series [1] and 19.3 µg/mL (≈ 50.1 µM) in series [3]. For the same compound, the “SI(CC50/EC50)” value is given as >10,000 in series [2] and 371 in series [4]. Further, the EC50 is 0.0025 µg/mL (≈ 0.00649 µM) in series [2] and 0.052 µg/mL (≈ 0.135 µM) in series [4].
Turning to `Cc1cc(I)cc(C)c1Oc1ccc([N+](=O)[O-])c(Nc2ccc(C#N)cc2)n1` [Compound I-16, 2-(4-cyanophenylamino)-6-(2,6-dimethyl-4-iodophenoxy)-3-nitropyridine], the melting point was in the range of 162 to 165 °C. Besides, in series [3], the CC50 at 4 days was 72.2 µg/mL (≈ 148 µM). For the same compound, in series [4], the EC50 turned out to be 1.18 µg/mL (≈ 2.43 µM) and the “SI(CC50/EC50)” value was 61.
Consider `N#CC=Cc1cc(Br)c(Oc2ccc([N+](=O)[O-])c(Nc3ccc(C#N)cc3)n2)c(Br)c1` [Compound I-30, 2-(4-cyanophenylamino)-6-(2,6-dibromo-4-cyanovinylphenoxy)-3-nitropyridine], for which the melting point was in the range of 223 to 226 °C. In series [3], the CC50 at 4 days amounted to 24.8 µg/mL (≈ 45.8 µM). In series [4], a half-maximal response (EC50) required 0.045 µg/mL (≈ 0.0832 µM) and the “SI(CC50/EC50)” value worked out at 551.
For `N#Cc1ccc(Nc2nc(Oc3c(Br)cc(C=O)cc3Br)ccc2[N+](=O)[O-])cc1` [Compound I-27, 2-(4-cyanophenylamino)-6-(2,6-dibromo-4-formylphenoxy)-3-nitropyridine], the melting point was 218 to 220 °C. For the same compound, in series [3], the CC50 at 4 days was found to be 0.78 µg/mL (≈ 1.51 µM). The compound also had an EC50 in series [4] of 0.152 µg/mL (≈ 0.293 µM).

For orientation: CC50 means the concentration that lowers cell viability or growth by half. Low values mean greater toxicity to the cells, high ones lower toxicity to the cells. Usually EC50 stands for the concentration giving half of the maximal effect. What is called melting point is the temperature, or range, at which the solid turns liquid.

The values above are taken from US8933106B2, “2-(4-substituted phenylamino) polysubstituted pyridine compounds as inhibitors of non-nucleoside HIV reverse transcriptase, preparation methods and uses thereof” (Institute of Pharmacology and Toxicology Academy of …, priority 2008, dated 2015).
